Results reported in US20260022142A1, “MACROCYCLIC IMMUNOMODULATORS” (Bristol-Myers Squibb Company, priority 2022, published 2026).
Bridge positions count the residues as written; N and C are the ends. Square brackets hold non-standard residues; d marks the D form. Peptide text beside a SMILES is read from it. * marks the point of attachment. Bip = N[C@@H](Cc1ccc(-c2ccccc2)cc1)C(=O)O; Phe(3-Me) = Cc1cccc(C[C@H](N)C(=O)O)c1; Cha = N[C@@H](CC1CCCCC1)C(=O)O; dCha = N[C@H](CC1CCCCC1)C(=O)O; dNle = CCCC[C@@H](N)C(=O)O; Carboxymethyl = O=C(O)C*; Orn = NCCC[C@H](N)C(=O)O; Aun = NCCCCCCCCCCC(=O)O; Dab = NCC[C@H](N)C(=O)O; Dap = NC[C@H](N)C(=O)O; AEEA = NCCOCCOCC(=O)O

Target: T1, PD-1/PD-L1 interaction (PE-labeled human PD-L1-Ig binding to Jurkat cell line over-expressing human PD-1) (Homo sapiens, UniProt Q15116)
T1 construct: expressed in transfected cells; host or cells: Jurkat
Experiment: Jurkat-PD-1 Cell Binding High-Content Screening Assay (CBA)
Assay type: cell-based
Settings: Jurkat cell line over-expressing human PD-1; PE-labeled PD-L1-Ig 20 nM final; read-out: Jurkat hPD1-PDL1 IC50
Outline: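 Binding of fluorescent PD-L1-Ig (phycoerythrin on Ig tag, 20 nM final, 1 h) measured by high-content imaging of fixed, Hoechst-counterstained Jurkat-hPD-1 cells. Compound added 2 h at 37° C beforehand, in DMEM with 10% fetal calf serum.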

T1 sequence (Q15116 25-288): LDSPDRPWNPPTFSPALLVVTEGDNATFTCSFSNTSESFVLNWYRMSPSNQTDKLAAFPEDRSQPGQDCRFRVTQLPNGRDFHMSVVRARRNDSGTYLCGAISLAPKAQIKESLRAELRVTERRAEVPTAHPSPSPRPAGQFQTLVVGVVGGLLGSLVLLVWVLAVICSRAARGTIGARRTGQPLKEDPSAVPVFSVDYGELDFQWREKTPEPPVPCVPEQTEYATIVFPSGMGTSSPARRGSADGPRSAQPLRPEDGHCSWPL

Row | SMILES | IC50 [nM]
1 | Cc1cccc(C[C@@H]2NC(=O)[C@H](CC(=O)O)NC(=O)[C@H](Cc3ccc(OCC(=O)O)cc3)NC(=O)[C@H](CN)NC(=O)CSC[C@@H](C(=O)N[C@@H](CCN)C(=O)NCCOCCOCC(=O)NCCCCCCCCCCC(=O)O)NC(=O)[C@H](CCCNC(=N)N)NC(=O)[C@H](C(C)C)NC(=O)[C@H](CC3CCCCC3)NC(=O)[C@H](CCN)NC(=O)[C@@H](CC3CCCCC3)NC(=O)[C@H](CCCN)NC(=O)[C@H](C(C)C)NC(=O)[C@H](Cc3ccc(-c4ccccc4)cc3)NC(=O)[C@H](C(C)C)NC2=O)c1 [Compound 2683] ({CH2CO}-[Dap]Y(Carboxymethyl)D[Phe(3-Me)]V[Bip]V[Orn][dCha][Dab][Cha]VRC[Dab][AEEA][Aun]-OH; thioether N-14) | 14.9
2 | Cc1cccc(C[C@@H]2NC(=O)[C@H](CC(=O)O)NC(=O)[C@H](Cc3ccc(OCC(=O)O)cc3)NC(=O)[C@H](CN)NC(=O)CSC[C@@H](C(=O)N[C@@H](CCN)C(=O)NCCOCCOCC(=O)NCCCCCCCCCCC(=O)O)NC(=O)[C@H](CN)NC(=O)[C@H](C(C)C)NC(=O)[C@H](CC3CCCCC3)NC(=O)[C@H](CCN)NC(=O)[C@@H](CC3CCCCC3)NC(=O)[C@H](CCCN)NC(=O)[C@H](C(C)C)NC(=O)[C@H](Cc3ccc(-c4ccccc4)cc3)NC(=O)[C@H](C(C)C)NC2=O)c1 [Compound 2684] ({CH2CO}-[Dap]Y(Carboxymethyl)D[Phe(3-Me)]V[Bip]V[Orn][dCha][Dab][Cha]V[Dap]C[Dab][AEEA][Aun]-OH; thioether N-14) | 36.3
3 | CCCC[C@H]1NC(=O)[C@H](CCCN)NC(=O)[C@H](C(C)C)NC(=O)[C@H](Cc2ccc(-c3ccccc3)cc2)NC(=O)[C@H](C(C)C)NC(=O)[C@H](Cc2cccc(C)c2)NC(=O)[C@H](CC(=O)O)NC(=O)[C@H](Cc2ccc(OCC(=O)O)cc2)NC(=O)[C@H](CN)NC(=O)CSC[C@@H](C(=O)N[C@@H](CCCCN)C(=O)NCCCCCCCCCCC(=O)O)NC(=O)[C@H](CN)NC(=O)[C@H](C(C)C)NC(=O)[C@H](CC2CCCCC2)NC(=O)[C@H](CCN)NC1=O [Compound 2685] ({CH2CO}-[Dap]Y(Carboxymethyl)D[Phe(3-Me)]V[Bip]V[Orn][dNle][Dab][Cha]V[Dap]CK[Aun]-OH; thioether N-14) | 11.6
4 | Cc1cccc(C[C@@H]2NC(=O)[C@H](CC(=O)O)NC(=O)[C@H](Cc3ccc(OCC(=O)O)cc3)NC(=O)[C@H](CN)NC(=O)CSC[C@@H](C(=O)N[C@@H](CCCCN)C(=O)NCCCCCCCCCCC(=O)O)NC(=O)[C@H](CN)NC(=O)[C@H](C(C)C)NC(=O)[C@H](CC3CCCCC3)NC(=O)[C@H](CCN)NC(=O)[C@@H](CC3CCCCC3)NC(=O)[C@H](CCCN)NC(=O)[C@H](C(C)C)NC(=O)[C@H](Cc3ccc(-c4ccccc4)cc3)NC(=O)[C@H](C(C)C)NC2=O)c1 [Compound 2686] ({CH2CO}-[Dap]Y(Carboxymethyl)D[Phe(3-Me)]V[Bip]V[Orn][dCha][Dab][Cha]V[Dap]CK[Aun]-OH; thioether N-14) | 16.1
5 | CCCC[C@H]1NC(=O)[C@H](CCCN)NC(=O)[C@H](C(C)C)NC(=O)[C@H](Cc2ccc(-c3ccccc3)cc2)NC(=O)[C@H](C(C)C)NC(=O)[C@H](Cc2cccc(C)c2)NC(=O)[C@H](CC(=O)O)NC(=O)[C@H](Cc2ccc(OCC(=O)O)cc2)NC(=O)[C@H](CN)NC(=O)CSC[C@@H](C(=O)N[C@@H](CCCCN)C(=O)NCCCCCCCCCCC(=O)O)NC(=O)[C@H](CCCN)NC(=O)[C@H](C(C)C)NC(=O)[C@H](CC2CCCCC2)NC(=O)[C@H](CCN)NC1=O [Compound 2687] ({CH2CO}-[Dap]Y(Carboxymethyl)D[Phe(3-Me)]V[Bip]V[Orn][dNle][Dab][Cha]V[Orn]CK[Aun]-OH; thioether N-14) | 10
